Measurements reported in US20210189643A1 (VF Jeanswear LP, priority 2017, published 2021).

Assay: Hydrolysis of modified indigo compound to indigo
Assay type: physicochemical
Settings: under hydrolyzing conditions
Procedure: In some embodiments, the substrate is contacted with a hydrolyzing agent, the hydrolyzing agent being capable of reacting with the modified indigo compound contained within the substrate to convert the modified indigo compound into indigo.
The hydrolysis is performed using any chemical compound or condition that is capable of converting the dye compound to indigo. In some embodiments, the hydrolysis is performed in aqueous compositions which contain a hydrolyzing agent. In other embodiments, the hydrolyzing agent may be selected by one skilled in the art and may include, without limitation, a base, heat, steam, or a combination thereof.

For `O=C1/C(=C2/C(=O)c3ccccc3N2C(=O)c2ccncc2)N(C(=O)c2ccncc2)c2ccccc21` [Compound 37], the “conversion to indigo by hydrolysis” value was “hydrolyzes to indigo”.
